Results as given in US20040086999A1, “Mutated-pf-4, its fragments and mutated fusion peptides, their analogues, corresponding dna, cdna and mrna sequences and their use for inhibiting angiognesis” (priority 2000, published 2004).

Experiments:
[1] = test system: FGF-2 high-affinity receptors; assay: Inhibition of binding of 125I-FGF-2 to high-affinity receptors on endothelial cells; settings: 125I-FGF-2 10 ng/ml, 2 h at 4° C., read-out: I50, inhibition of the binding of FGF-2 to the high-affinity receptors
Protocol: (§1) The inhibition of the binding of FGF-2 to high-affinity receptors (Table 1) is measured in the following manner. FGF-2 is radiolabeled with ^125I-Na, and 10 ng/ml are incubated with endothelial cells for 2 h at 4° C. The radioactivity bound to high-affinity receptors is then determined. The specific binding is estimated by subtracting the nonspecific binding from the total binding (in the presence of a 100-fold excess of cold ligand relative to the hot ligand). The I50 is the concentration which inhibits specific binding by 50%.
(§2) A more detailed description of these measurements of I50 may be found in Jouan et al. and in Perollet et al. cited above.

VEGF receptors = assay: Inhibition of binding of 125I-VEGF to surface receptors on endothelial cells; settings: 125I-VEGF 10 ng/ml, 2 h at 4° C., read-out: I50, inhibition of the binding of VEGF to the high-affinity receptors
Protocol: The inhibition of the binding of VEGF to the surface receptors (Table 1) is measured in the following manner. VEGF is radiolabeled with ^125I-Na, and 10 ng/ml are incubated with endothelial cells for 2 h at 4° C. The radioactivity bound to the receptors is then determined. The specific binding is estimated by subtracting the nonspecific binding from the total binding (in the presence of a 100-fold excess of cold ligand relative to the hot ligand). The I50 is the concentration which inhibits specific binding by 50%.
as §2

proteoglycans = assay: Inhibition of binding of 125I-FGF-2 to proteoglycans on endothelial cells; settings: 125I-FGF-2 10 ng/ml, 2 h at 4° C., read-out: I50, inhibition of the binding of FGF-2 to proteoglycans
Protocol: as §1, with “to the proteoglycans” for “to high-affinity receptors”, “(Table 2)” for “(Table 1)”, “cold […]” for “cold ligand”
as §2

[2] = test system: proliferation induced by FGF-2; assay: Inhibition of the biological activity of FGF-2 (FGF-2-induced cell proliferation, cell count); assay type: cell-based; settings: 20 000 cells, 10 ng/ml FGF-2, DMEM 1% FCS, counted on day 6; read-out: I50, inhibition of cell proliferation
Protocol: The inhibition of the biological activity of FGF-2 (Table 3) is measured in the following manner: 20 000 cells are incubated with 10 ng/ml of FGF-2 in DMEM medium containing 1% fetal calf serum (FCS) in dishes 3.5 cm in diameter in the presence or in the absence of peptide. The cells are counted on the 6 day using a Coulter counter. The experiments are carried out in duplicate. The I50 is the concentration which inhibits the proliferation induced by FGF-2 by 50%.
as §2

angiogenesis = assay: Inhibitory activity tests of the fusion peptide (method not described); settings: test not specified

| Substance | IC50 [1] [nM] | IC50 (VEGF receptors) [nM] | IC50 (proteoglycans) [nM] | IC50 [2] [nM] | Inhibitory activity compared with native PF-4 or fragment 47-70 (angiogenesis) |
| --- | --- | --- | --- | --- | --- |
| Peptide 47-70 DLQ: nonmutated PF-4 fragment 47-70, control peptide used as comparative example (NGRKICLDLQAPLYKKIIKKLLES; Platelet factor 4; UniProt P02776 78-101, looked up, fragment) [reference compound] | 1500 | 1500 | 3500 | 2800 | – |
| Peptide 47-70 DLR: PF-4 fragment 47-70 with glutamine in position 56 replaced by arginine (SEQ. ID. No:3) (NGRKICLDLRAPLYKKIIKKLLES; SEQ ID NO. 3 is the 47-70 fragment of mutated PF-4 SEQ ID. NO. 2) | 300 | 300 | 600 | 400 | – |
| fusion peptide 17-34/47-70: fusion peptide 17-34/47-70 derived from PF-4; the mutated form is SEQ. ID. No:4 (SQVRPRHITSLEVIKAGPNGRKICLDLRAPLYKKIIKKLLES; SEQ ID NO. 4 is the 17-34/47-70 fragment of mutated PF-4 SEQ. ID NO. 2.) [fusion peptide 17-34/47-70 derived from PF-4; ID; No:4] | – | – | – | – | inhibitory activity greater than that of native PF-4 or of fragment 47-70 |
